Reference: ChEMBL document CHEMBL1800002, “Indazole derivatives as novel bradykinin B1 receptor antagonists” (Bioorg Med Chem Lett, 2010)

Experiments:
[1] = molecular target: Cannabinoid receptor 2 (Homo sapiens, UniProt P34972); experiment: Displacement of radioligand from human CB2 receptor expressed in CHO cells; assay type: cell-based
[2] = Clearance in Sprague-Dawley rat at 10 mg/kg, po or 2 mg/kg, iv; assay type: ADME, organism-based; conditions: in vivo
[3] = Clearance in Mongrel dog at 3 mg/kg, po or 1 mg/kg, iv; assay type: ADME, organism-based, Canis lupus familiaris; conditions: in vivo
[4] = Half life in Mongrel dog at 3 mg/kg, po or 1 mg/kg, iv; assay type: ADME, organism-based, Canis lupus familiaris; conditions: in vivo
[5] = Apparent passive permeability coefficient by cell based assay; assay type: ADME
[6] = Oral bioavailability in Sprague-Dawley rat at 10 mg/kg; assay type: ADME, organism-based; conditions: in vivo
[7] = molecular target: ATP-dependent translocase ABCB1 (Homo sapiens, UniProt P08183); experiment: Drug transport assessed as MDR1 -mediated transcellular transport ratio by P-gp transport assay; assay type: ADME
ATP-dependent translocase ABCB1, sequence (P08183 whole entry): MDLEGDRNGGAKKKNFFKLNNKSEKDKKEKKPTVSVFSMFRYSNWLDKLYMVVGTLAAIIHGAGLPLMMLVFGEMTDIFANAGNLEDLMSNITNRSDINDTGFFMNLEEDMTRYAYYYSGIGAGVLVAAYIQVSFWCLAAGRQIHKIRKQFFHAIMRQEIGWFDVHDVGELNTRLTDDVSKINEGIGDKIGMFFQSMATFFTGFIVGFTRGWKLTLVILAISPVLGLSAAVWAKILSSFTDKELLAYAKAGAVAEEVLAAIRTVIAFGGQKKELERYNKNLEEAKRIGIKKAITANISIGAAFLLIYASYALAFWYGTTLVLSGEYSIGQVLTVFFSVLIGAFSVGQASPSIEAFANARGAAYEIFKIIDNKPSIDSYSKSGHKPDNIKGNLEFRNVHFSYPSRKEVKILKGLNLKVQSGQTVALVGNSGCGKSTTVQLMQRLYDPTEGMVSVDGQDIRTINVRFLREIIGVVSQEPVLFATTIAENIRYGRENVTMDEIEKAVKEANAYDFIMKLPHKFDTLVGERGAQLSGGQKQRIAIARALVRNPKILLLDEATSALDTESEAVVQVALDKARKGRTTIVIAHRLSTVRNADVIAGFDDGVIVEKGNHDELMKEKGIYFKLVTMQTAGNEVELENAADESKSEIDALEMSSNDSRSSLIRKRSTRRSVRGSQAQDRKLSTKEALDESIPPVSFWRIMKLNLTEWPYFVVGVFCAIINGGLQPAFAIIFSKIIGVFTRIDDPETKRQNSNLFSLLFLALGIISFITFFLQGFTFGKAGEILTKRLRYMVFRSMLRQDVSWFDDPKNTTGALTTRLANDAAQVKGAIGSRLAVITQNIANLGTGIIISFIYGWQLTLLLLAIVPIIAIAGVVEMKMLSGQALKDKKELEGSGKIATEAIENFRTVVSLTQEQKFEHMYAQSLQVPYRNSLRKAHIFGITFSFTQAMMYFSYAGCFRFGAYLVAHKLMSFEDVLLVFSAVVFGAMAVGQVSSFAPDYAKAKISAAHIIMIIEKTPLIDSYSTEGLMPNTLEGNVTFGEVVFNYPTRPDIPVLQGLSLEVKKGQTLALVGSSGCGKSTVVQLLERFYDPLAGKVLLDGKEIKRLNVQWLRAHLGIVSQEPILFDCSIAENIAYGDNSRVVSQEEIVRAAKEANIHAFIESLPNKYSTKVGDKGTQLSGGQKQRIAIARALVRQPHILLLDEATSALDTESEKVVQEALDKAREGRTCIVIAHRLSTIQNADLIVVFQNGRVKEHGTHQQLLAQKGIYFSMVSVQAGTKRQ

[8] = Half life in Sprague-Dawley rat at 10 mg/kg, po or 2 mg/kg, iv; assay type: ADME, organism-based; conditions: in vivo
[9] = system: Liver microsomes; experiment: Stability in human liver microsomes; assay type: ADME, Microsome

Cannabinoid receptor 2, sequence (P34972 whole entry): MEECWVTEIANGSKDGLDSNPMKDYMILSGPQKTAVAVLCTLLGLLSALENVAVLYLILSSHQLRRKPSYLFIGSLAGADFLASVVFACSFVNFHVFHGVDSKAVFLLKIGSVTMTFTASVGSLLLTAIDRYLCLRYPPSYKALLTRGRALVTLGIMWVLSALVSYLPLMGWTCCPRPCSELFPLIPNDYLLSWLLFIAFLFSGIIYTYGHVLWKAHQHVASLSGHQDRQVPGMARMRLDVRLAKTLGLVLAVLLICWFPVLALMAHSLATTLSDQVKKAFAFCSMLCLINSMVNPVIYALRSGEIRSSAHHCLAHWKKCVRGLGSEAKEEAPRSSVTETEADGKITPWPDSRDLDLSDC

| Compound | Ki [1] | clearance [3] | half-life [4] | Papp [5] | Ratio [7] | other results |
| --- | --- | --- | --- | --- | --- | --- |
| COc1cc(C(=O)NC2(C(=O)N[C@H](C)c3ccc(-n4nc(C)c5ccccc54)cc3F)CC2)on1 | > 10 µM | – | – | – | – | – |
| CCc1nn(-c2ccc([C@@H](C)NC(=O)C3(NC(=O)c4cc(OC)no4)CC3)c(F)c2)c2ccccc12 | > 10 µM | – | – | – | – | – |
| COc1cc(C(=O)NC2(C(=O)N[C@H](C)c3ccc(-n4nc(C5CC5)c5ccccc54)cc3F)CC2)on1 | > 10 µM | – | – | – | – | – |
| COc1cc(C(=O)NC2(C(=O)N[C@H](C)c3ccc(-n4nc(-c5ccccc5)c5ccccc54)cc3F)CC2)on1 | > 10 µM | – | – | – | – | – |
| COc1cc(C(=O)NC2(C(=O)N[C@H](C)c3ccc(-n4nc(Br)c5ccccc54)cc3F)CC2)on1 | > 10 µM | – | – | – | – | – |
| COc1cc(C(=O)NC2(C(=O)N[C@H](C)c3ccc(-n4[nH]c(=O)c5ccccc54)cc3F)CC2)on1 | > 10 µM | – | – | – | – | – |
| COc1cc(C(=O)NC2(C(=O)N[C@H](C)c3ccc(-n4nc(OC)c5ccccc54)cc3F)CC2)on1 | > 10 µM | – | – | – | – | – |
| COc1cc(C(=O)NC2(C(=O)N[C@H](C)c3ccc(-n4nc(C#N)c5ccccc54)cc3F)CC2)on1 | > 10 µM | – | – | – | – | – |
| COc1cc(C(=O)NC2(C(=O)N[C@H](C)c3ccc(-n4nc(Cl)c5ccccc54)cc3F)CC2)on1 | > 10 µM | 1.3 mL/min/kg | 20.8 h | 26 ×10⁻⁶ cm/s | 1.6 | clearance [2]: 5.3 mL/min/kg; bioavailability [6]: 49%; half-life [8]: 3.1 h |
| C[C@@H](NC(=O)C1(NC(=O)c2cncs2)CC1)c1ccc(-n2nc(Cl)c3ccccc32)cc1F | – | 1.1 mL/min/kg | 4.3 h | 19 ×10⁻⁶ cm/s | 2.8 | – |
| COc1ncc(C(=O)NC2(C(=O)N[C@H](C)c3ccc(-n4nc(Cl)c5ccccc54)cc3F)CC2)s1 | – | 1.7 mL/min/kg | 8.3 h | 14 ×10⁻⁶ cm/s | 1.8 | clearance [2]: 12.7 mL/min/kg; bioavailability [6]: 13%; half-life [8]: 8.3 h |
| COc1cc(C(=O)NC2(C(=O)N[C@H](C)c3ccc(-n4ncc5ccccc54)cc3F)CC2)on1 | > 10 µM | – | – | – | – | – |
| Cc1ncsc1C(=O)NC1(C(=O)N[C@H](C)c2ccc(-n3nc(Cl)c4ccccc43)cc2F)CC1 | – | – | – | – | – | Stability [9]: Unstable |
| Cc1nnsc1C(=O)NC1(C(=O)N[C@H](C)c2ccc(-n3nc(Cl)c4ccccc43)cc2F)CC1 | – | 9.6 mL/min/kg | 2.4 h | 21 ×10⁻⁶ cm/s | 2.3 | – |
| C[C@@H](NC(=O)C1(NC(=O)c2cn[nH]c2)CC1)c1ccc(-n2nc(Cl)c3ccccc32)cc1F | – | – | – | 19 ×10⁻⁶ cm/s | 55.6 | Stability [9]: Stable |
| C[C@@H](NC(=O)C1(NC(=O)c2ccc(Br)nc2)CC1)c1ccc(-n2nc(Cl)c3ccccc32)cc1F | – | 2.6 mL/min/kg | 7.1 h | 8.2 ×10⁻⁶ cm/s | 2.2 | – |
| Cc1cncc(C(=O)NC2(C(=O)N[C@H](C)c3ccc(-n4nc(Cl)c5ccccc54)cc3F)CC2)c1 | – | 4.3 mL/min/kg | 2.6 h | 22 ×10⁻⁶ cm/s | 1.9 | – |
| C[C@@H](NC(=O)C1(NC(=O)c2cncc(O)c2)CC1)c1ccc(-n2nc(Cl)c3ccccc32)cc1F | – | – | – | 18 ×10⁻⁶ cm/s | 89 | – |
| COc1cncc(C(=O)NC2(C(=O)N[C@H](C)c3ccc(-n4nc(Cl)c5ccccc54)cc3F)CC2)c1 | – | 5.5 mL/min/kg | 2.3 h | 21 ×10⁻⁶ cm/s | 5.3 | clearance [2]: 7.8 mL/min/kg; bioavailability [6]: 6%; half-life [8]: 0.7 h |
| C[C@@H](NC(=O)C1(NC(=O)c2cncc(F)c2)CC1)c1ccc(-n2nc(Cl)c3ccccc32)cc1F | – | – | – | 24 ×10⁻⁶ cm/s | 7.5 | – |
| C[C@@H](NC(=O)C1(NC(=O)c2cncc(Cl)c2)CC1)c1ccc(-n2nc(Cl)c3ccccc32)cc1F | – | 3.1 mL/min/kg | 6 h | 15 ×10⁻⁶ cm/s | 2.5 | – |
| C[C@@H](NC(=O)C1(NC(=O)c2cncc(Br)c2)CC1)c1ccc(-n2nc(Cl)c3ccccc32)cc1F | – | 3.8 mL/min/kg | 7.6 h | 13 ×10⁻⁶ cm/s | 2.3 | clearance [2]: 2.5 mL/min/kg; bioavailability [6]: 24%; half-life [8]: 3.1 h |
| C[C@@H](NC(=O)C1(NC(=O)c2ccnnc2)CC1)c1ccc(-n2nc(Cl)c3ccccc32)cc1F | – | – | – | 25 ×10⁻⁶ cm/s | 29.4 | – |
| C[C@@H](NC(=O)C1(NC(=O)c2cncnc2)CC1)c1ccc(-n2nc(Cl)c3ccccc32)cc1F | – | – | – | 24 ×10⁻⁶ cm/s | 5.9 | – |
| C[C@@H](NC(=O)C1(NC(=O)c2cnccn2)CC1)c1ccc(-n2nc(Cl)c3ccccc32)cc1F | – | – | – | 30 ×10⁻⁶ cm/s | 1.6 | – |
| C[C@@H](NC(=O)C1(NC(=O)c2cncc(Cl)n2)CC1)c1ccc(-n2nc(Cl)c3ccccc32)cc1F | – | 10.5 mL/min/kg | 15.1 h | 24 ×10⁻⁶ cm/s | 1.8 | clearance [2]: 105 mL/min/kg; half-life [8]: 1.6 h |
| COC(=O)c1c(F)cccc1-c1ccc(CNC(=O)C2(NC(=O)C(F)(F)F)CC2)c(F)c1 | – | – | – | – | 4.1 | – |
